Assay: recombinant barcode read abundance after kanamycin selection (control-corrected) (log10(CPM+1)); higher = more efficient recombination; sequences stand for … in AGTGCAGAGAAAATCGGCCAGTTTTCTCTGCCTGCAGTCCGCATGCCGT…AGATTTATGCAGCGGACTGCCTTTCTCCCAAAGTGATAAACCGGACAGTATCATGGACCGGTTTTCCCGGTAATCCGTATTTGCAAGGTTGGTTTCACT; site = the 11-nt target
Procedure: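 Pooled E. coli target-specificity screen for the IS621 bridge recombinase. Each library plasmid pairs an 11-nt target (CT core) with a bridge RNA whose target-binding loop (9-nt LTG + 4-nt RTG) is reprogrammed; the rest of the 177-nt WT IS621 bridge RNA scaffold is fixed. The plasmid is co-electroporated with a WT donor plasmid; recombinase is induced with 0.1 mM IPTG and recombinants are selected on kanamycin. Recombinant barcodes are sequenced, converted to CPM, averaged over two biological replicates and corrected by the unselected control CPM. Molecule = full bridge RNA written as DNA: LTG = specificity nt 1-9, RTG = reverse complement of specificity nt 8-11, in the WT scaffold.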
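Note: IS621 recombinase and bridge RNA in Escherichia coli cells.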

| Sequence | recombinant barcode read abundance (log10) |
| --- | --- |
| AATAGGACTTGGGTTCTAACCTGTTGCTA (site AATAAGACTTG) | 0.0927 |
| AATAGGACTTGGGTTCTAACCTGTTGCTA (site AATAGGACTTA) | 0.896 |
| AATAGGGCTTGGGTTCTAACCTGTTGCGG (site AATAGGGCTCC) | 2.21 |
| AATAGGGCTTGGGTTCTAACCTGTTGCGG (site ACTAGGGCTCC) | 0.294 |
| AATCGGCCTTGGGTTCTAACCTGTTGCGT (site AATAGGCCTAC) | 0.375 |
| AATCGGCCTTGGGTTCTAACCTGTTGCGT (site AATCGGCCTAC) | 1.85 |
| AATCGGCCTTGGGTTCTAACCTGTTGCGT (site AATGGGCCTAC) | 0.0625 |
| AATCGGCCTTGGGTTCTAACCTGTTGCGT (site AATTGGCCTAC) | 0.175 |
| AATGCTACTTGGGTTCTAACCTGTTGCAT (site AATGCTACTAT) | 0.235 |
| AATGCTACTTGGGTTCTAACCTGTTGCAT (site TATGCTACTAT) | 0.238 |
| AATGCTCCTTGGGTTCTAACCTGTTGCGT (site AATGCTCCTAA) | 0.116 |
| AATGCTCCTTGGGTTCTAACCTGTTGCGT (site AATGCTCCTAC) | 2.03 |
| AATGCTCCTTGGGTTCTAACCTGTTGCGT (site AATGCTCCTAG) | 0.419 |
| AATGCTCCTTGGGTTCTAACCTGTTGCGT (site AATGCTCCTAT) | 0.177 |
| AATGCTCCTTGGGTTCTAACCTGTTGCTT (site AATGCTCCTAA) | 0.49 |
| AATGCTCCTTGGGTTCTAACCTGTTGCTT (site AATGCTCCTAC) | 0.0515 |
| AATGCTCCTTGGGTTCTAACCTGTTGCTT (site AATGCTCCTAG) | 0.103 |
| AATGCTCCTTGGGTTCTAACCTGTTGCTT (site AATGCTCCTAT) | 0.135 |

| Sequence | recombinant barcode read abundance (log10) |
| --- | --- |
| AATGCTTCTTGGGTTCTAACCTGTTGCTT (site AATGCTTCTAA) | 0.398 |
| AATGCTTCTTGGGTTCTAACCTGTTGCTT (site GATGCTTCTAA) | 0.143 |
| AATGGGACTTGGGTTCTAACCTGTTGCGA (site AATGGGACTCA) | 0.331 |
| AATGGGACTTGGGTTCTAACCTGTTGCGA (site AATGGGACTTC) | 2.42 |
| AATGGGACTTGGGTTCTAACCTGTTGCTG (site AATGGGACTCA) | 2.47 |
| AATGGGACTTGGGTTCTAACCTGTTGCTG (site AATGGGACTTC) | 1.55 |
| AATGGTCCTTGGGTTCTAACCTGTTGCCA (site AATGGTCCTTG) | 0.588 |
| AATGGTCCTTGGGTTCTAACCTGTTGCCA (site CTAATATCTAT) | 0.337 |
| AATTAGTCTTGGGTTCTAACCTGTTGCGG (site AATTAGTCTCC) | 2.2 |
| AATTAGTCTTGGGTTCTAACCTGTTGCGG (site AGTTAGTCTCC) | 0.312 |
| AATTGAGCTTGGGTTCTAACCTGTTGCCT (site AATTAAGCTAG) | 0.0773 |
| AATTGAGCTTGGGTTCTAACCTGTTGCCT (site AATTCAGCTAG) | 0.0625 |
| AATTGAGCTTGGGTTCTAACCTGTTGCCT (site AATTGAGCTAG) | 0.887 |
| AATTGAGCTTGGGTTCTAACCTGTTGCCT (site AATTTAGCTAG) | 0.242 |
| AATTGCCCTTGGGTTCTAACCTGTTGCCT (site AATTGCCCTAG) | 0.369 |
| AATTGCCCTTGGGTTCTAACCTGTTGCCT (site ACTTGCCCTAG) | 0.00964 |
| AATTGCCCTTGGGTTCTAACCTGTTGCCT (site AGTTGCCCTAG) | 0.0557 |
| AATTGCCCTTGGGTTCTAACCTGTTGCCT (site ATTTGCCCTAG) | 0.166 |

Source: the supplement of paper PMC11208160
